Results published in ChEMBL document CHEMBL6121001, “Benzimidazole analogues active against adult Schistosoma mansoni: SAR analyses, In vivo efficacy in mice, and preliminary mechanistic studies as potential inhibitors of hemozoin formation” (Eur J Med Chem, 2025).

Experiment: Apparent permeability of compound at 1 mM incubated for 4 hrs by PAMPA based LC-MS/MS analysis
Assay type: ADME

| SMILES | Papp at 4 h, 1000 µM |
| --- | --- |
| Oc1ncccc1CN1CCC(Nc2nc3ccccc3n2Cc2ccc(C(F)(F)F)cc2)CC1 | 1.8 nm/s |
| FC(F)(F)c1ccc(Cn2c(NC3CCN(Cc4ccccc4)CC3)nc3ccccc32)cc1 | 180 nm/s |
| Oc1ccccc1CN1CCC(Nc2nc3ccccc3n2Cc2ccc(C(F)(F)F)cc2)CC1 | 230 nm/s |
